Source: patent publication US6617350B2, “Inhibitors of aspartyl protease” (priority 1999, dated 2003)
Like-named read-outs stand apart in the source and are kept apart here.

Experiments:
HIV-1 (strain IIIB) = assay: microbe, parasite or virus in culture; format: cell-based; conditions: Human immunodeficiency virus 1, IIIB
HIV-1 protease = HIV-1 protease (Human immunodeficiency virus type 1 group M subtype B, UniProt P04585); assay: biochemical
[1] = MT4, Table 12, anti-viral potency in MT-4 cells, read-out: IC50
[2] = Table 12, HIV-1 protease, read-out: Ki
[3] = MT4, antiviral assay, MT4 cells infected with HIV-1 (strain IIIB), class symbol, read-out: IC50 (activity range)
[4] = MT4, Table 13, MT-4 cell based assay, class symbol, read-out: IC50

Structure (SMILES)	IC50 (HIV-1 (strain IIIB); [3]) [nM]	Ki (HIV-1 protease; [2]) [nM]	also measured
CCC(CCC1(C)OCCO1)CN(C[C@@H](O)[C@H](Cc1ccccc1)NC(=O)OC(C)(C)C)S(=O)(=O)c1ccc(OC)cc1 (mixture of isomers) [Compound 202, tert-ButylN-((1S,2R)-1-benzyl-3-[2-ethyl-4-(2-methyl-1,3-dioxolan-2-yl)butyl][(4-methoxyphenyl)sulfonyl]amino-2-hydroxypropyl)carbamate]		1 to 10	IC50 (HIV-1 (strain IIIB); [1]): > 1000 nM
CCOC(=O)CNC(=O)NCCCC(C)(C)CN(CC(O)C(Cc1ccccc1)NC(=O)OC1COC2OCCC12)S(=O)(=O)c1ccc(OC)cc1 (mixture of isomers) [Compound 216, Ethyl (3S,4R)-1-[(3R,3aS,6aR)hexahydrofuro[2,3-b]furan-3-yloxy]-3-benzyl-4-hydroxy-6-[(4-methoxyphenyl)sulfonyl]-8,8-dimethyl-1,13-dioxo-2,6,12,14-tetraazahexadecan-16-oate and Ethyl (3S,4R)-1-[(3S,3aR,6aS)hexahydrofuro[2,3-b]furan-3-yloxy]-3-benzyl-4-hydroxy-6-[(4-methoxyphenyl)sulfonyl]-8,8-dimethyl-1,13-dioxo-2,6,12,14-tetraazahexadecan-16-oate]		< 1	IC50 (HIV-1 (strain IIIB); [1]): ≤ 100 nM
COc1ccc(S(=O)(=O)N(CC(C)CCC#N)CC(O)C(Cc2ccccc2)NC(=O)OC(C)(C)C)cc1 [Compound 2, ter-Butyl N-((1S,2R)-1-benzyl-3-[(2RS)-(4-cyano-2-methylbutyl)][(4-methoxyphenyl)sulfonyl]amino-2-hydroxypropyl)carbamate]		< 1	IC50 (HIV-1 (strain IIIB); [1]): > 1000 nM
CC(C)(CCC#N)CN(C[C@@H](O)[C@H](Cc1ccccc1)NC(=O)OC(C)(C)C)S(=O)(=O)c1cccc(N)c1 [Compound 5, tert-ButylN-((1S,2R)-3-[(3-aminophenyl)sulfonyl](4-cyano-2,2-dimethylbutyl)amino-1-benzyl-2-hydroxypropyl)carbamate]		< 1	IC50 (HIV-1 (strain IIIB); [1]): > 1000 nM
CC(C)(CCC#N)CN(C[C@@H](O)[C@H](Cc1ccccc1)NC(=O)OC(C)(C)C)S(=O)(=O)c1ccc2c(c1)OCO2 [Compound 6, {(1S,2R)-3-[(Benzo[1,3]dioxole-5-sulfonyl)-(4-cyano-2,2-dimethyl-butyl)-amino]-1-benzyl-2-hydroxy-propyl}-carbamic acid tert-butyl ester]		< 1	
COc1ccc(S(=O)(=O)N(CC(C)CCC#N)CC(O)C(Cc2ccccc2)NC(=O)OC2CCOC2)cc1 [Compound 8, (3S)-Tetrahydro-3-furanyl N-((1S,2R)-1-benzyl-3-[(2RS)-4-cyano-2-methyl][(4-methoxyphenyl)sulfonyl]amino-2-hydroxypropyl)carbamate]		< 1	IC50 (HIV-1 (strain IIIB); [1]): ≤ 100 nM
CCNc1cccc(S(=O)(=O)N(CC(O)C(Cc2ccccc2)NC(=O)OC2COC3OCCC23)CC(C)(C)CCC#N)c1 [Compound 44, {(1S,2R)-3-[(3-N-ethylaminophenyl)sulfonyl]-(4-cyano-2,2-dimethyl-butyl)-amino]-1-benzyl-2-hydroxy-propyl}carbamic acid (3R,3aS,6aR)hexahydro-furo[2,3-b]furan-3-yl ester]		< 1	
COc1ccc(S(=O)(=O)N(CCC#N)C[C@@H](O)[C@H](Cc2ccccc2)NC(=O)OC(C)(C)C)cc1 [Compound 123]		10 to 100	
CC(C)(C)OC(=O)N[C@@H](Cc1ccccc1)[C@H](O)CN(CCC#N)S(=O)(=O)c1cccc(N)c1 [Compound 127]		10 to 100	
COc1ccc(S(=O)(=O)N(CC(O)[C@H](Cc2ccccc2)NC(=O)OC(C)(C)C)CC(C)(C)CCOC(N)=O)cc1 (stereo partly drawn) [Compound 234, ter-Butyl N-((1S,2R)-1-benzyl-3-(4-carbamoyloxy-2,2-dimethylbutyl)[(4-methoxyphenyl)sulfonyl]amino-2-hydroxypropyl)carbamate]		< 1	
COc1ccc(S(=O)(=O)N(CCC(C)CCC=O)C[C@@H](O)[C@H](Cc2ccccc2)NC(=O)OC(C)(C)C)cc1 (stereo partly drawn) [Compound 277]		1 to 10	
CC(CCC=O)CCN(C[C@@H](O)[C@H](Cc1ccccc1)NC(=O)OC(C)(C)C)S(=O)(=O)c1ccc2c(c1)OCO2 (stereo partly drawn) [Compound 278]		1 to 10	
COc1ccc(S(=O)(=O)N(CCC(C)=O)C[C@@H](O)[C@H](Cc2ccccc2)NC(=O)OC(C)(C)C)cc1 [Compound 279]		10 to 100	
CC(C)(CCCCN)CN(C[C@@H](O)[C@H](Cc1ccccc1)NC(=O)O[C@H]1CCOC1)S(=O)(=O)c1ccc2c(c1)OCO2 [Compound 295, (3S)-tetrahydro-3-furanyl N-(1S,2R)-3-[(1,3-benzodioxol-5-ylsulfonyl)(6-amino-2,2-dimethylhexyl)amino]-1-benzyl-2-hydroxypropylcarbamate]	100 to 500		
CC(C)(CCCCN)CN(CC(O)[C@H](Cc1ccccc1)NC(=O)OC1CCOC1)S(=O)(=O)c1ccc(N)cc1 (stereo partly drawn) [Compound 296, (3S)-tetrahydro-3-furanyl N-(1S,2R)-3-[(4-aminophenylsulfonyl)(6-amino-2,2-dimethylhexyl)amino]-1-benzyl-2-hydroxypropylcarbamate]	100 to 500		
CC(C)(CCCCN)CN(CC(O)[C@H](Cc1ccccc1)NC(=O)OC1COCOC1)S(=O)(=O)c1ccc2c(c1)OCO2 (stereo partly drawn) [Compound 297, [1,3]-dioxan-5-yl N-(1S,2R)-3-[(1,3-benzodioxol-5-ylsulfonyl)(6-amino-2,2-dimethylhexyl)amino]-1-benzyl-2-hydroxypropylcarbamate]	100 to 500		
CC(C)(CCNC(=O)C(C)(C)C)CN(C[C@@H](O)[C@H](Cc1ccccc1)NC(=O)O[C@H]1CO[C@H]2OCC[C@H]21)S(=O)(=O)c1ccc2c(c1)OCO2 [Compound 374]			IC50 (HIV-1 (strain IIIB); [4]): 1 to 10 nM
CC(C)(CCNC(=O)C1CCC1)CN(C[C@@H](O)[C@H](Cc1ccccc1)NC(=O)O[C@H]1CO[C@H]2OCC[C@H]21)S(=O)(=O)c1ccc2c(c1)OCO2 [Compound 375]			IC50 (HIV-1 (strain IIIB); [4]): 1 to 10 nM
CC(C)CC(=O)NCCC(C)(C)CN(C[C@@H](O)[C@H](Cc1ccccc1)NC(=O)O[C@H]1CO[C@H]2OCC[C@H]21)S(=O)(=O)c1ccc2c(c1)OCO2 [Compound 376]			IC50 (HIV-1 (strain IIIB); [4]): 1 to 10 nM
CC(C)(CCNC(=O)c1ccccc1)CN(C[C@@H](O)[C@H](Cc1ccccc1)NC(=O)O[C@H]1CO[C@H]2OCC[C@H]21)S(=O)(=O)c1ccc2c(c1)OCO2 [Compound 377]			IC50 (HIV-1 (strain IIIB); [4]): 1 to 10 nM
CC(C)(CCNC(=O)c1ccco1)CN(C[C@@H](O)[C@H](Cc1ccccc1)NC(=O)O[C@H]1CO[C@H]2OCC[C@H]21)S(=O)(=O)c1ccc2c(c1)OCO2 [Compound 378]			IC50 (HIV-1 (strain IIIB); [4]): 1 to 10 nM
CC(C)(CCNC(=O)c1cccs1)CN(C[C@@H](O)[C@H](Cc1ccccc1)NC(=O)O[C@H]1CO[C@H]2OCC[C@H]21)S(=O)(=O)c1ccc2c(c1)OCO2 [Compound 379]			IC50 (HIV-1 (strain IIIB); [4]): 1 to 10 nM
CNC(=O)NCC(=O)NCCC(C)(C)CN(CC(O)C(Cc1ccccc1)NC(=O)OC1COC2OCCC12)S(=O)(=O)c1ccc2c(c1)OCO2 (stereo not drawn) [Compound 529]			Ki (HIV-1 protease): < 1 nM
CNC(=O)NCC(=O)NCCCC(C)(C)CN(CC(O)C(Cc1ccccc1)NC(=O)OC1COC2OCCC12)S(=O)(=O)c1ccc2c(c1)OCO2 (stereo not drawn) [Compound 536]			Ki (HIV-1 protease): < 1 nM
CN(C)C(=O)NCC(=O)NCCCCC(C)(C)CN(CC(O)C(Cc1ccccc1)NC(=O)OC1COC2OCCC12)S(=O)(=O)c1ccc2c(c1)OCO2 (stereo not drawn) [Compound 540]	100 to 500		
CC(C)(CCCCNC(=O)CNS(C)(=O)=O)CN(CC(O)C(Cc1ccccc1)NC(=O)OC1COC2OCCC12)S(=O)(=O)c1ccc2c(c1)OCO2 (stereo not drawn) [Compound 542]	100 to 500		
CNC(=O)NCC(=O)NCCCCC(C)(C)CN(CC(O)C(Cc1ccccc1)NC(=O)OC1COC2OCCC12)S(=O)(=O)c1ccc2c(c1)OCO2 (stereo not drawn) [Compound 543]			Ki (HIV-1 protease): < 1 nM
CC(C)CN(CC(O)C(Cc1ccccc1)NC(=O)OC1CCOC1)S(=O)(=O)c1ccc(N)cc1 [Compound A, 4-amino-N-((2 syn, 3S)-2-hydroxy-4-phenyl-3-((S)-tetrahydrofuran-3-yloxycarbonylamino)-butyl)-N-isobutyl-benzenesulfonamide, reference compound]			IC50 (HIV-1 (strain IIIB); MT4, MT-4 cells, comparison compound, read-out: IC50 in the MT-4 cell based assay): 80 nM; IC50 (HIV-1 (strain IIIB); MT4, Table 13, MT-4 cell based assay, numeric value, comparison compound, read-out: IC50): 80 nM

Further lines, with some results ahead:

IC50 (HIV-1 (strain IIIB); [3]) [nM]	Structure (SMILES)	Ki (HIV-1 protease; [2]) [nM]	also measured
100 to 500	CC(C)(CCNC(=O)CCC1CCCC1)CN(C[C@@H](O)[C@H](Cc1ccccc1)NC(=O)O[C@H]1CO[C@H]2OCC[C@H]21)S(=O)(=O)c1ccc2c(c1)OCO2 [Compound 402]		
100 to 500	CC(C)(CCNC(=O)CN)CN(CC(O)C(Cc1ccccc1)NC(=O)OC1COC2OCCC12)S(=O)(=O)c1ccc2c(c1)OCO2 [Compound 520, (3R,3aS,6aR)hexahydrofuro[2,3-b]furan-3-yl N-(1S,2R)-3-[(4-[(amino)acetylamino]-2,2-dimethylbutyl)(1,3-benzodioxol-5-ylsulfonyl)amino]-1-benzyl-2-hydroxypropylcarbamate]		
100 to 500	CC(=O)NCC(=O)NCCC(C)(C)CN(CC(O)C(Cc1ccccc1)NC(=O)OC1COC2OCCC12)S(=O)(=O)c1ccc2c(c1)OCO2 (stereo not drawn) [Compound 523]		
100 to 500	CN(C)C(=O)NCC(=O)NCCC(C)(C)CN(CC(O)C(Cc1ccccc1)NC(=O)OC1COC2OCCC12)S(=O)(=O)c1ccc2c(c1)OCO2 (stereo not drawn) [Compound 526]		
100 to 500	COCC(=O)NCC(=O)NCCC(C)(C)CN(CC(O)C(Cc1ccccc1)NC(=O)OC1COC2OCCC12)S(=O)(=O)c1ccc2c(c1)OCO2 (stereo not drawn) [Compound 527]		
100 to 500	CC(C)(CCNC(=O)CNS(C)(=O)=O)CN(CC(O)C(Cc1ccccc1)NC(=O)OC1COC2OCCC12)S(=O)(=O)c1ccc2c(c1)OCO2 (stereo not drawn) [Compound 528]		
100 to 500	CN(C)C(=NC#N)NCCC(C)(C)CN(CC(O)C(Cc1ccccc1)NC(=O)OC1COC2OCCC12)S(=O)(=O)c1ccc2c(c1)OCO2 (stereo not drawn) [Compound 563]		
100 to 500	CC(C)(CCOC(=O)NO)CN(CC(O)C(Cc1ccccc1)NC(=O)OC1COC2OCCC12)S(=O)(=O)c1ccc2c(c1)OCO2 (stereo not drawn) [Compound 605]		
